In brackets after ≈: the same amount, converted by molar mass. Like-named read-outs stand apart in the source and are kept apart here.
Tests used:
[1] = test system: LPS-induced ALI model in rats; test: HE and Masson staining of lung tissue in LPS-induced rat ALI model; type: in vivo
Description: (§1) Male SD rats were acclimatized for one week, and an ALI model in rats was established using tracheal instillation of LPS. The specific modeling steps were as follows: the rats were first anesthetized with isoflurane, then the rats were fixed in a supine position to facilitate intratracheal administration to the lungs. LPS (8 mg/kg) was nebulized into the alveoli using a microsprayer. The microsprayer was then removed, the animal was placed in a vertical position, and gently rotated for 30 seconds to ensure even distribution of LPS throughout the lungs.
(§2) Referring to relevant literature on synephrine, the maximum human dose of synephrine is 100 mg. Based on the clinically equivalent dose, the dose administered to the rats via gavage was 9 mg/kg, and the low-dose inhalation group was 4.5 mg/kg.
Lung tissue fixed in 4% paraformaldehyde was dehydrated, routinely embedded in paraffin, and prepared into 5 μm sections. After dewaxing, the sections were routinely stained with HE, dehydrated, mounted, and observed under a microscope to examine the structure and morphological characteristics of the rat lung tissue in each group.
The sections were routinely dewaxed to water. Hydrophobic zones were drawn, and Bouin's solution was added dropwise. The sections were then covered and incubated at 37° C. After incubation, they were rinsed with running water until the yellow color disappeared. […]

[2] = test system: LPS-induced ALI model in rats; test: Total protein content in BALF (BCA assay) of ALI rats; type: in vivo, rat; settings: 6 h after administration
Description: as §1, §2
After blood collection, the rats were placed in a supine position on the operating table until their hearts stopped beating. […]
This study used the bicinchoninic acid (BCA) assay to determine the total protein content in BALF. The tissue weight was accurately measured, and physiological saline was added according to the weight-to-volume ratio. […] The test solution was added sequentially according to the protein quantification kit instructions. The absorbance was measured at 562 nm using a microplate reader, and the protein concentration in BALF was calculated.

[3] = test system: LPS-induced ALI model in rats; test: Serum inflammatory cytokine levels (ELISA) in LPS-induced rat ALI model; type: in vivo; settings: P<0.0001; 6 h after administration
Description: as §1, §2
Six hours after drug administration, rats were anesthetized by intraperitoneal injection of sodium pentobarbital. […]
Rat serum was collected, and the levels of TNF-α, IL-6, IL-8, IL-1β, and IL-1α were measured separately according to the rat ELISA kit instructions. The OD value was measured at 450 nm using a microplate reader. A standard curve was plotted with the concentrations of TNF-α, IL-8, IL-6, IL-1β, and IL-1α standards on the x-axis and the absorbance values on the y-axis. The concentrations of TNF-α, IL-6, IL-8, IL-1β, and IL-1α in serum were calculated based on the standard curve.

[4] = Solubility of synephrine API in different solvents by HPLC; type: physicochemical
Description: Column: Agilent C18 (250 mm×4.6 mm, 5 μm) column; mobile phase: 0.1% formic acid (A)-acetonitrile (B); detection wavelength: 273 nm; flow rate: 1 mL/min; column temperature: 30° C.; injection volume: 10 μL; isocratic elution: 1 min to 10 min; 97% A.
Excess synephrine API was weighed and placed in an EP tube. Then, 1.00 mL of each of the following solutions was added: water, anhydrous ethanol, isopropanol, ethyl acetate, n-butanol, n-octanol, acetonitrile, and n-hexane. The mixture was sonicated (300 W, 40 kHz) until no further dissolution occurred. The tube was then centrifuged at 6000 r min^−1 for 15 min, filtered through a 0.22 μm microporous membrane, and the filtrate was diluted with methanol and analyzed under liquid chromatography conditions. The solubility of synephrine in different solvents was calculated.

[5] = Hygroscopicity by dynamic vapor sorption (DVS); type: physicochemical
Description: The hygroscopicity of synephrine API and DPI was analyzed using a dynamic vapor sorption (DVS) analyzer. The experimental temperature was set to room temperature (25° C.), the carrier gas was nitrogen, and the total gas flow rate was 200 mL/min. Samples were weighed and placed on the balance tray of the DVS analyzer. The relative humidity (RH) change program was set as required, and the humidity equilibrium time was also set.

[6] = In vitro pulmonary deposition, next-generation pharmaceutical impactor (NGI); type: physicochemical; settings: 75 L/min, 3.2 s, 10 mg capsules
Description: The in vitro pulmonary deposition of synephrine DPI samples was investigated using the next-generation pharmaceutical impactor (NGI). The various components of the instrument were connected sequentially, including the NGI device, an adapter, an artificial throat, a pre-separator, and a collection tray. After installation, the airtightness and uniformity of the device were checked. The gas flow rate was 75 L/min. At this gas flow rate, the cutoff values Da of each stage of the collection tray were as follows: S1=7.145 μm, S2=3.971 μm, S3=2.522 μm, S4=1.495 μm, S5=0.835 μm, S6=0.481 μm, S7=0.293 μm, and the micro-orifice collector (MOC)=0.104 μm.
The specific method was as follows: 10 mg synephrine micropowder and API were added to No. 3 hydroxypropyl methylcellulose capsules, respectively, and then loaded into a single-capsule inhalation device. After connecting to an NGI, the measurement was performed. Five capsules were inhaled each time. The inhalation flow rate was 75 L/min, and the inhalation duration was 3.2 s. Drug powder deposited at each stage of the NGI was collected using ultrapure water. The synephrine content was determined under UV conditions, and the FPF and respirable fraction (RF) were calculated.

[7] = test system: LPS-induced RAW264.7 cells; test: LPS-induced RAW264.7 cellular inflammation model, ELISA of inflammatory mediators; type: cell-based; settings: Mus musculus, LPS-stimulated RAW264.7
Description: RAW264.7 cells in logarithmic growth phase were seeded at 100 μL per well in a 96-well plate and cultured at 37° C. and 5% CO2 for 24 hours. The supernatant was aspirated and discarded. 100 μL of medium containing synephrine at an appropriate concentration was added to each well for pretreatment for 1 h, followed by the addition of LPS-containing medium. The cells were then co-incubated with the test substance for 24 hours.
Based on the CCK-8 assay results, RAW264.7 cells in logarithmic growth phase were seeded in 96-well plates and divided into the control group, LPS group, LPS+SYN group, and LPS+SYN-DPI group. A cellular inflammation model was established. After culturing for 24 h, the supernatant from each well was collected and centrifuged at 3500 rpm for 10 min. The supernatant was collected and the subsequent procedures were strictly performed according to the ELISA kit instructions. The absorbance was measured at 450 nm using a microplate reader, and the contents of interleukin (IL)-1B, IL-6, tumor necrosis factor (TNF)-α, and nitric oxide (NO) were calculated.

[8] = test system: LPS-induced ALI model in rats; test: Lung wet-to-dry weight ratio in LPS-induced rat ALI model; type: in vivo; settings: SYN 9 mg/kg gavage; SYN-DPI 4.5-18 mg/kg inhalation; 6 h after administration
Description: as §1, §2
After instillation of the left lung of the rats, the left and right lungs were collected, washed with physiological saline, and dried. The lower lobe of the left lung was used to determine the wet-to-dry weight ratio of the rat lung tissue. […]
The lower lobe of the left lung of the rat was collected, surface blood was removed, surface moisture was wiped off, and the lobe was weighed. The wet weight was recorded. The lobe was then dried in a 60° C. oven for 24 hours, and the dry weight was recorded. The degree of pulmonary edema was evaluated by calculating the lung wet/dry weight ratio. […]

[9] = Pharmacokinetic study in rats, plasma synephrine by LC-MS/MS; type: in vivo, rat; settings: for Cmax: rat plasma
Description: SPF-grade male SD rats, weighing 180-220 g, were housed under identical experimental conditions: temperature (22±1)° C., relative humidity (55±5) %, and a 12-hour light/dark cycle. They had free access to food and water and underwent a one-week acclimatization period before the experiment.
Column: Hypersil GOLD C8 (100 mm×2.1 mm; 3 μm); Mobile phase: Phase A: 0.1% formic acid aqueous solution, Phase B: acetonitrile; Flow rate: 0.3 mL/min; Column temperature: 40° C.; Injection volume: 2 μL; Gradient elution program: 0-1 min, 5% B; 1-4 min, 5%-90% B; 4-5 min, 90%-5% B.
Mass spectrometry was performed in electrospray ionization (ESI) positive ion scanning mode, using multiple reaction monitoring (MRM) detection mode. The collision gas was high-purity nitrogen; capillary voltage: 3.5 kV; nebulizer pressure: 45 psi; desiccator temperature: 300° C.; drying gas flow rate: 5 L/min (N2); sheath gas temperature: 250° C.; sheath gas flow rate: 11 L/min (N2).
Experimental animals were randomly divided into three groups: (1) tail vein injection group, (2) pulmonary inhalation group, and (3) gavage group, with 5 animals in each group. Animals were fasted for 12 h before administration but had free access to water.
Rats were fasted for 12 hours before the experiment but were allowed free access to water. The rats were weighed to calculate the dosage and numbered. After administration, 0.2 mL of blood was collected from the orbital vein at time points of 2 min, 5 min, 10 min, 15 min, 30 min, 1 h, 2 h, 3 h, 4 h, and 6 h. The blood samples were placed in an EP tube containing heparin sodium and were centrifuged at 3500 rpm for 15 min. The supernatant plasma was separated and stored at −80° C. freezer.
190 μL of a rat plasma sample was accurately pipetted into an EP tube. Then, 10 μL of an internal standard solution was added, and the sample was vortexed for 60 s. Next, 400 μL of acetonitrile was added, and the sample was vortexed for 60 s to precipitate proteins. The sample was then centrifuged at 10000 rpm for 15 mins, and the supernatant was passed through a 0.22 μm microporous filter membrane. Finally, the filtered sample was placed in a glass insert for LC-MS/MS analysis.

Structure (SMILES): C[C@@H]1C[C@H]2[C@@H]3CCC4=CC(=O)C=C[C@]4(C)[C@@]3(F)[C@@H](O)C[C@]2(C)[C@@]1(O)C(=O)CO [Dex]
- pathological damage of rat lung tissue (HE, Masson) ([1]; Dex group, 3 mg/kg gavage): significantly alleviated
- total protein content in BALF compared with the LPS group [2]: significantly improve alveolar interstitial space
- expression levels of serum inflammatory cytokines (IL-1α, IL-1β, IL-6, IL-8, TNF-α) compared to the model group [3]: significantly decreased

Structure (SMILES): CNCC(O)c1ccc(O)cc1 (stereo not drawn) [SYN, Synephrine]
- solubility ([4]; organic solvent or mixture, solvent: Acetonitrile): 10.62 ± 0.06 mg/mL (≈ 63.5 mM)
- solubility ([4]; organic solvent or mixture, solvent: Anhydrous Ethanol): 17.2 ± 0.27 mg/mL (≈ 103 mM)
- solubility ([4]; organic solvent or mixture, solvent: Ethyl Acetate): 0.64 ± 0.01 mg/mL (≈ 3.83 mM)
- solubility ([4]; organic solvent or mixture, solvent: Isopropanol): 7.06 ± 0.12 mg/mL (≈ 42.2 mM)
- solubility ([4]; organic solvent or mixture, solvent: n-Butanol): 8.76 ± 0.02 mg/mL (≈ 52.4 mM)
- solubility ([4]; organic solvent or mixture, solvent: n-Octanol): 3.66 ± 0.01 mg/mL (≈ 21.9 mM)
- solubility ([4]; solvent: Water): 13.44 ± 0.02 mg/mL (≈ 80.4 mM)
- Solubility (in words) ([4]; solvent: n-hexane): almost insoluble
- hygroscopicity class (Chinese Pharmacopoeia 2020, 9103 guidelines) ([5]; 90% RH): no or almost no hygroscopicity (hygroscopic weight gain less than 0.2%)
- maximum moisture adsorption / moisture absorption weight gain ([5]; 90% RH, 25° C.): 0.12%
- moisture absorption weight gain percentage ([5]; normal storage conditions (60% RH), 25° C.): less than 0.2%
- effective in vitro lung deposition rate [6]: 2.25%
- emptying rate [6]: 90.98%
- fine particle fraction (FPF) [6]: 2.69%
- respirable fraction (RF) [6]: 41.26%
- inhibition at 200 µM ([7]; 200 μM, read-out: inhibition of NO production): 16.1%
- inhibition at 400 µM ([7]; 400 μM, read-out: inhibition rate of IL-6 production): 23.3%
- wet-to-dry weight ratio of rat lungs compared to the model group [8]: significant reduction
- pathological changes, SYN group compared with low-dose SYN-DPI group ([1]; SYN 9 mg/kg gavage vs SYN-DPI 4.5 mg/kg inhalation): no significant difference in pathological changes
- expression levels of serum inflammatory cytokines (IL-1α, IL-1β, IL-6, IL-8, TNF-α) compared to the model group [3]: significantly decreased
- Cmax ([9]; iv, injection group (tail vein)): 1.03 µg/mL
- AUC(0-inf) ([9]; plasma, iv, rat, injection group (tail vein)): 1.54 µg·h/mL
- half-life ([9]; plasma, iv, rat, injection group (tail vein), read-out: half-life (t½)): 5.33 h
- bioavailability ([9]; plasma, po, rat, gavage group, read-out: AUC(0-∞) as % of the injection group): 64.5%
- AUC(0-t) ([9]; plasma, po, rat, gavage group, read-out: area-under-the-curve (AUC)(0-t)): 0.876 µg·h/mL
- half-life ([9]; plasma, po, rat, gavage group, read-out: half-life t½): 2.29 h
- Cmax ([9]; po, gavage group): 0.302 µg/mL
- Cmax as % of the injection group ([9]; rat, gavage group): 29.24%
- half-life (t½) as % of the injection group ([9]; rat, gavage group): 43.01%

— patent publication US20260283959A1, “APPLICATION OF […] POWDER INHALER IN PREPARATION OF MEDICAMENT FOR TREATING ACUTE LUNG INJURY” (Anhui University of Chinese Medicine, priority 2025, published 2026)
